This note sets out measurements from US11001590B2, “Pyrazolopyrimidine derivatives” (BAYER ANIMAL HEALTH GMBH, priority 2016, dated 2021).

The structures appear in SMILES notation. A value given as a limit tells only on which side of the number the result lay.

One data set deals with C. elegans Slo-1a (Caenorhabditis elegans, UniProt Q95V25). In words: In vitro assay 1: C. elegans Slo-1a, action at a recombinant C. elegans CHO cell line (membrane potential measurement).
C. elegans Slo-1a, sequence (Q95V25 whole entry): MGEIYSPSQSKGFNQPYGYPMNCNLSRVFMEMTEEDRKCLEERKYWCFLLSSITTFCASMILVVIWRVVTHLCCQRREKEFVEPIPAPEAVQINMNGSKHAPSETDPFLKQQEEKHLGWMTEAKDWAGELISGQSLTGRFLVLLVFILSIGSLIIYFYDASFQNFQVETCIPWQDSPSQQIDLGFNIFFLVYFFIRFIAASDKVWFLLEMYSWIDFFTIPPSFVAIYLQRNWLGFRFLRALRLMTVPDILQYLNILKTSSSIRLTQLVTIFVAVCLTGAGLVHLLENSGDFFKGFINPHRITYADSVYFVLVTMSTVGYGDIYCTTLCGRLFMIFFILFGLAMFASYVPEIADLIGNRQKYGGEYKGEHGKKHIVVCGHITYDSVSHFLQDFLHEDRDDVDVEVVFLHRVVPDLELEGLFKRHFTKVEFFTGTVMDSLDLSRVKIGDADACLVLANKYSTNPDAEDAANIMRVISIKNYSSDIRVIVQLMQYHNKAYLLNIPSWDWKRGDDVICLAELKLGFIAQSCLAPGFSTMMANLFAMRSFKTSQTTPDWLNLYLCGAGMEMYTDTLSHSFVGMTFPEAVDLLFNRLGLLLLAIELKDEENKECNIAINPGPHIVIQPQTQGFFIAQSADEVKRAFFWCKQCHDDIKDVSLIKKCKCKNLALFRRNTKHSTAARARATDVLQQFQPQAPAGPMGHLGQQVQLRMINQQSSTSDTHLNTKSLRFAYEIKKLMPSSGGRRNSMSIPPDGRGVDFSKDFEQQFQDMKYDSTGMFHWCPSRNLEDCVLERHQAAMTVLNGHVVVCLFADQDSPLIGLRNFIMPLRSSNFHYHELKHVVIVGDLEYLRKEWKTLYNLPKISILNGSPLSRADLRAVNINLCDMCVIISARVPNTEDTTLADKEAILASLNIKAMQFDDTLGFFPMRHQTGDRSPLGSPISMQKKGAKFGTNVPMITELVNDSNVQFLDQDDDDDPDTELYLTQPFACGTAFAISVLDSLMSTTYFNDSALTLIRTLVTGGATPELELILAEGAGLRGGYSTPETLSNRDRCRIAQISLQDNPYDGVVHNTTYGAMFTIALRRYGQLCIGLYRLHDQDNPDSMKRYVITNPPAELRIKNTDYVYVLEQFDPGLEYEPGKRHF
Conditions: not given
As to `Cc1nn2c(C(C)C)c(C(=O)N[C@H]3CCOc4ccccc43)cnc2c1-c1cccc(Br)c1` [Example 204], the EC50 was 15.8 nM.

For the compound `Cc1nn2c(C(C)C)c(C(=O)N[C@H]3CCOc4ccccc43)cnc2c1-c1ccccc1` [Example 176], the 50% effective concentration (EC50) is 12.6 nM.

Take `Cc1nn2c(C(C)C)c(C(=O)N[C@H]3CCCc4ccccc43)cnc2c1-c1cccc(C(F)F)c1` [Example 145]: the 50% effective concentration (EC50) was 31.6 nM.

Regarding `Cc1nn2c(C3CC3)c(C(=O)N[C@H]3CCOc4ccccc43)cnc2c1-c1cccc(Cl)c1` [Example 455], the half-maximal effective concentration (EC50) is 6.31 nM.

Regarding `Cc1c(C(=O)N[C@H]2CCCc3ccccc32)cnc2c(-c3ccccc3Cl)c(Cl)nn12` [Example 77], the concentration giving a half-maximal response (EC50) is 63.1 nM.

In the case of `Cc1nn2c(C(C)C)c(C(=O)N[C@H]3CCCc4ccccc43)cnc2c1-c1cccc(F)c1` [Example 347], the EC50 was 39.8 nM.

As for `Cc1nn2c(C(C)C)c(C(=O)N[C@H]3CCOc4ccccc43)cnc2c1-c1ccc(F)cc1Cl` [Example 218], the EC50 was 1.58 nM.

With `Cc1nn2c(C(C)C)c(C(=O)N[C@H]3CCOc4ccccc43)cnc2c1-c1ccc(Cl)cc1Cl` [Example 180], the EC50 is 7.94 nM.

On to `Cc1nn2c(C(C)C)c(C(=O)N[C@H]3CCCc4ccccc43)cnc2c1-c1cccc(C(F)(F)F)c1` [Example 3], for which the concentration for a half-maximal effect (EC50) is 50.1 nM.

Consider `Cc1nn2c(C(C)C)c(C(=O)N[C@H]3CCOc4ccccc43)cnc2c1-c1ccc2c(c1)NCC2` [Example 248], for which the EC50 was 50.1 nM.

As for `Cc1nn2c(C(C)C)c(C(=O)N[C@H]3CCc4ccccc43)cnc2c1-c1cccc(C(F)F)c1` [Example 151], the EC50 is 31.6 nM.

In the case of `CCCOCc1cccc(-c2c(C)nn3c(C(C)C)c(C(=O)N[C@H]4CCc5ccccc54)cnc23)c1` [Example 390], the EC50 was 39.8 nM.

As for `Cc1nn2c(C3CC3)c(C(=O)N[C@H]3CCc4ccccc43)cnc2c1-c1cccc(OC(F)F)c1` [Example 417], the EC50 is 7.94 nM.

Take `Cc1nn2c(C(C)C)c(C(=O)N[C@H]3CCCc4ccccc43)cnc2c1-c1cccc2c1OC(F)(F)O2` [Example 146]: the concentration giving a half-maximal response (EC50) is 25.1 nM.

With `CC(C)c1c(C(=O)N[C@H]2CCc3ccccc32)cnc2c(-c3cccc(N(C)C)c3)c(C3CC3)nn12` [Example 407], the EC50 was 126 nM.

In the case of `Cc1nn2c(C(C)C)c(C(=O)N[C@H]3CCOc4ccccc43)cnc2c1-c1ccc2c(c1F)OCO2` [Example 245], the EC50 was 20 nM.

`Cc1nn2c(C(C)C)c(C(=O)N[C@H]3CCc4ccccc43)cnc2c1-c1cccc(COCC2CC2)c1` [Example 389]: the EC50 is 251 nM.

Turning to `Cc1nn2c(C(C)C)c(C(=O)N[C@H]3CCc4ccccc43)cnc2c1-c1cccc(NS(C)(=O)=O)c1` [Example 308], the EC50 was 1580 nM.

As to `CC(C)c1c(C(=O)N[C@H]2CCc3ccccc32)cnc2c(-c3cccc(F)c3)c(C(F)(F)F)nn12` [Example 157], the concentration for a half-maximal effect (EC50) was 100 nM.

As for `COc1cccc(-c2c(C)nn3c(C4CC4)c(C(=O)N[C@H]4CCCc5ccccc54)cnc23)c1` [Example 439], the EC50 is 6.31 nM.

As to `CC(C)c1c(C(=O)N[C@H]2CCc3ccccc32)cnc2c(-c3c(F)cccc3F)c(C3CC3)nn12` [Example 413], the concentration giving a half-maximal response (EC50) is 251 nM.

A further data set deals with Dirofilaria immitis microfilariae. In words: In vitro assay 3: Dirofilaria immitis microfilariae (DIROIM L1), motility. The conditions noted are these: 72 h, reduction of motility vs negative control, 72 h incubation.
`Cc1nn2c(C(C)C)c(C(=O)N[C@H]3CCOc4ccccc43)cnc2c1-c1cccc(Br)c1` [Example 204]: the EC50 was < 0.1 µg/mL.

Regarding `Cc1nn2c(C(C)C)c(C(=O)N[C@H]3CCOc4ccccc43)cnc2c1-c1ccccc1` [Example 176], the EC50 is < 0.1 µg/mL.

On to `Cc1nn2c(C(C)C)c(C(=O)N[C@H]3CCCc4ccccc43)cnc2c1-c1cccc(C(F)F)c1` [Example 145], for which the EC50 is < 10 µg/mL.

For the compound `Cc1nn2c(C3CC3)c(C(=O)N[C@H]3CCOc4ccccc43)cnc2c1-c1cccc(Cl)c1` [Example 455], the EC50 is < 0.1 µg/mL.

On to `Cc1c(C(=O)N[C@H]2CCCc3ccccc32)cnc2c(-c3ccccc3Cl)c(Cl)nn12` [Example 77], for which the concentration for a half-maximal effect (EC50) was < 10 µg/mL.

In the case of `Cc1nn2c(C(C)C)c(C(=O)N[C@H]3CCCc4ccccc43)cnc2c1-c1cccc(F)c1` [Example 347], the EC50 was < 1 µg/mL.

Take `Cc1nn2c(C(C)C)c(C(=O)N[C@H]3CCOc4ccccc43)cnc2c1-c1ccc(F)cc1Cl` [Example 218]: the EC50 is < 0.1 µg/mL.

For the compound `Cc1nn2c(C(C)C)c(C(=O)N[C@H]3CCOc4ccccc43)cnc2c1-c1ccc(Cl)cc1Cl` [Example 180], the half-maximal effective concentration (EC50) was < 0.1 µg/mL.

Take `Cc1nn2c(C(C)C)c(C(=O)N[C@H]3CCCc4ccccc43)cnc2c1-c1cccc(C(F)(F)F)c1` [Example 3]: the concentration for a half-maximal effect (EC50) is < 10 µg/mL.

On to `Cc1nn2c(C(C)C)c(C(=O)N[C@H]3CCOc4ccccc43)cnc2c1-c1ccc2c(c1)NCC2` [Example 248], for which the EC50 is < 10 µg/mL.

As for `Cc1nn2c(C(C)C)c(C(=O)N[C@H]3CCc4ccccc43)cnc2c1-c1cccc(C(F)F)c1` [Example 151], the EC50 was < 1 µg/mL.

Turning to `CCCOCc1cccc(-c2c(C)nn3c(C(C)C)c(C(=O)N[C@H]4CCc5ccccc54)cnc23)c1` [Example 390], the 50% effective concentration (EC50) is < 10 µg/mL.

Regarding `Cc1nn2c(C3CC3)c(C(=O)N[C@H]3CCc4ccccc43)cnc2c1-c1cccc(OC(F)F)c1` [Example 417], the concentration for a half-maximal effect (EC50) was < 0.1 µg/mL.

Consider `Cc1nn2c(C(C)C)c(C(=O)N[C@H]3CCCc4ccccc43)cnc2c1-c1cccc2c1OC(F)(F)O2` [Example 146], for which the half-maximal effective concentration (EC50) was < 0.1 µg/mL.

As for `CC(C)c1c(C(=O)N[C@H]2CCc3ccccc32)cnc2c(-c3cccc(N(C)C)c3)c(C3CC3)nn12` [Example 407], the EC50 is < 10 µg/mL.

For `Cc1nn2c(C(C)C)c(C(=O)N[C@H]3CCOc4ccccc43)cnc2c1-c1ccc2c(c1F)OCO2` [Example 245], the concentration giving a half-maximal response (EC50) is < 1 µg/mL.

As for `Cc1nn2c(C(C)C)c(C(=O)N[C@H]3CCc4ccccc43)cnc2c1-c1cccc(COCC2CC2)c1` [Example 389], the EC50 was < 10 µg/mL.

Regarding `Cc1nn2c(C(C)C)c(C(=O)N[C@H]3CCc4ccccc43)cnc2c1-c1cccc(NS(C)(=O)=O)c1` [Example 308], the EC50 was < 10 µg/mL.

On to `CC(C)c1c(C(=O)N[C@H]2CCc3ccccc32)cnc2c(-c3cccc(F)c3)c(C(F)(F)F)nn12` [Example 157], for which the 50% effective concentration (EC50) was < 10 µg/mL.

For `COc1cccc(-c2c(C)nn3c(C4CC4)c(C(=O)N[C@H]4CCCc5ccccc54)cnc23)c1` [Example 439], the 50% effective concentration (EC50) is < 0.1 µg/mL.

`CC(C)c1c(C(=O)N[C@H]2CCc3ccccc32)cnc2c(-c3c(F)cccc3F)c(C3CC3)nn12` [Example 413]: the concentration giving a half-maximal response (EC50) was < 1 µg/mL.

Test system in another data set: not listed separately
In words: log P by HPLC on reversed phase columns (Method L0; [a] acidic, [b] neutral range).
Conditions: not given
For the compound `Cc1nn2c(C(C)C)c(C(=O)N[C@H]3CCOc4ccccc43)cnc2c1-c1cccc(Br)c1` [Example 204], the chromatographic logP was found to be 5.02.

`Cc1nn2c(C(C)C)c(C(=O)N[C@H]3CCOc4ccccc43)cnc2c1-c1ccccc1` [Example 176]: the chromatographic logP came to 4.28.

`Cc1nn2c(C(C)C)c(C(=O)N[C@H]3CCCc4ccccc43)cnc2c1-c1cccc(C(F)F)c1` [Example 145] displayed a chromatographic logP of 4.93.

`Cc1nn2c(C3CC3)c(C(=O)N[C@H]3CCOc4ccccc43)cnc2c1-c1cccc(Cl)c1` [Example 455] had a chromatographic logP of 4.13.

Take `Cc1c(C(=O)N[C@H]2CCCc3ccccc32)cnc2c(-c3ccccc3Cl)c(Cl)nn12` [Example 77]: the chromatographic logP amounted to 4.26.

For `Cc1nn2c(C(C)C)c(C(=O)N[C@H]3CCCc4ccccc43)cnc2c1-c1cccc(F)c1` [Example 347], the chromatographic logP was found to be 5.04.

With `Cc1nn2c(C(C)C)c(C(=O)N[C@H]3CCOc4ccccc43)cnc2c1-c1ccc(F)cc1Cl` [Example 218], the chromatographic logP was 4.51.

Regarding `Cc1nn2c(C(C)C)c(C(=O)N[C@H]3CCOc4ccccc43)cnc2c1-c1ccc(Cl)cc1Cl` [Example 180], the chromatographic logP amounted to 5.02.

On to `Cc1nn2c(C(C)C)c(C(=O)N[C@H]3CCCc4ccccc43)cnc2c1-c1cccc(C(F)(F)F)c1` [Example 3], for which the chromatographic logP stood at 5.59.

For `Cc1nn2c(C(C)C)c(C(=O)N[C@H]3CCOc4ccccc43)cnc2c1-c1ccc2c(c1)NCC2` [Example 248], the chromatographic logP amounted to 2.2.

The compound `Cc1nn2c(C(C)C)c(C(=O)N[C@H]3CCc4ccccc43)cnc2c1-c1cccc(C(F)F)c1` [Example 151] showed a chromatographic logP of 4.67.

Compound `CCCOCc1cccc(-c2c(C)nn3c(C(C)C)c(C(=O)N[C@H]4CCc5ccccc54)cnc23)c1` [Example 390] had a chromatographic logP of 5.4.

`Cc1nn2c(C3CC3)c(C(=O)N[C@H]3CCc4ccccc43)cnc2c1-c1cccc(OC(F)F)c1` [Example 417]: the chromatographic logP amounted to 4.01.

Take `Cc1nn2c(C(C)C)c(C(=O)N[C@H]3CCCc4ccccc43)cnc2c1-c1cccc2c1OC(F)(F)O2` [Example 146]: the chromatographic logP turned out to be 5.47.

Consider `CC(C)c1c(C(=O)N[C@H]2CCc3ccccc32)cnc2c(-c3cccc(N(C)C)c3)c(C3CC3)nn12` [Example 407], for which the chromatographic logP came out at 4.81.

In the case of `Cc1nn2c(C(C)C)c(C(=O)N[C@H]3CCOc4ccccc43)cnc2c1-c1ccc2c(c1F)OCO2` [Example 245], the chromatographic logP amounted to 4.18.

`Cc1nn2c(C(C)C)c(C(=O)N[C@H]3CCc4ccccc43)cnc2c1-c1cccc(COCC2CC2)c1` [Example 389]: the chromatographic logP was 5.24.

Compound `Cc1nn2c(C(C)C)c(C(=O)N[C@H]3CCc4ccccc43)cnc2c1-c1cccc(NS(C)(=O)=O)c1` [Example 308] came in with a chromatographic logP of 3.44.

As to `CC(C)c1c(C(=O)N[C@H]2CCc3ccccc32)cnc2c(-c3cccc(F)c3)c(C(F)(F)F)nn12` [Example 157], the chromatographic logP was determined as 5.02.

`COc1cccc(-c2c(C)nn3c(C4CC4)c(C(=O)N[C@H]4CCCc5ccccc54)cnc23)c1` [Example 439] had a chromatographic logP of 4.03.

The compound `CC(C)c1c(C(=O)N[C@H]2CCc3ccccc32)cnc2c(-c3c(F)cccc3F)c(C3CC3)nn12` [Example 413] gave a chromatographic logP of 4.96.

In general, EC50 refers to the midpoint of the concentration-response curve. For orientation: chromatographic logP means lipophilicity estimated from chromatographic retention. The low end stands for lower lipophilicity, the high end for higher lipophilicity.
